System: atherosclerotic lesions on thoracic and abdominal aorta
Assay: Atherosclerotic lesions in rabbits fed a hypercholesterolemic diet
Assay type: in vivo, New Zealand rabbits
Conditions: hypercholesterolemic diet (0.2% w/w cholesterol), substance in diet, 8 week-treatment, aorta stained with Sudan IV
Excerpt: The complexes of the invention dose-dependently prevent or reduce the formation of, atherosclerotic plaques. The activity was evidenced in rabbits fed with a hypercholesterolemic diet so as to induce atherosclerotic lesions similar to the human ones at the vasal level, particularly at the aortal arch, ventral aorta, carotids and cerebral vessels. In said model, the above mentioned phospholipid complexes change the macro- and microscopical vascular condition reducing, compared with untreated animals, both the number and the severity of the atheromatous plagues, with surprising vascular-tissutal benefit.
32 New Zealand rabbits were divided in 4 groups of 8 animals each, and treated as follows:
Group 1): Control, normal diet
Group 2): Hypercholesterolemic diet (0.2% w/w cholesterol)
Group 3): Hypercholesterolemic diet+phospholipid complex of proanthocyanidin A2 extract (0.2% cholesterol+2% w/w complex of Example 1).
Group 4): Hypercholesterolemic diet+proanthocyanidin A2 extract (0.2% cholesterol+amount of proanthocyanidin A2 equivalent to that present in 2% w/w of the complex of Example 1). After 8 week-treatment, during which cholesterol, LDL/VLDL, HDL and triglycerids levels were measured, the animals were killed.
The number, size and distribution of the atherosclerotic lesions on thoracic and abdominal aorta were evaluated. […]

Oc1cc(O)c2c(c1)O[C@@]1(c3ccc(O)c(O)c3)Oc3cc(O)c4c(c3C2[C@H]1O)OC(c1ccc(O)c(O)c1)[C@H](O)C4 (stereo partly shown) [proanthocyanidin A2]
area percent of the lesion: 30%
